Where two headings read alike, the source gives them in different places.
Assays:
[1] = system: non-differentiated Caco-2 cells
Procedure: Caco-2 cells were seeded on coverslips treated with polylysine at a concentration of approximately 2.5 - 5x10^5 cells/ml and grown to confluence. Cells were washed once with PBS without Ca^2+, Mg^2+. 1-2 ml of PBS w/o Ca^2+, Mg^2+ containing antisense oligonucleotides +/- enhancers was added and cells were incubated for 30 min at 37°C. Variations to this protocol by pre-incubating cells with enhancers (40min), washing with PBS w/o Ca^2+, Mg^2+ and then incubating with antisense oligonucleotides for 30min were also analysed.
Two different FITC labelled antisense oligonucleotides were used: FITC-labelled ELNG05 (5'-[…]-3'; complementary to a sequence in the human BCR-Abl mRNA) and FITC-labelled S-PTH-05 (5'-[…]-3', complementary to sequence 153-170 of the human HPT1 receptor mRNA). […] The uptake of antisense oligonucleotides was also analysed in the absence of enhancers for variable periods of time (30min - 60min). Following incubation, cells were washed twice with PBS w/o Ca^2+, Mg^2+ and stained with 1µg/ml TexasRed-DHPE (dihexadecanoylglycerophosphoethanolamine, Molecular Probe T-1395) for 15min at 37°C, washed extensively and fixed with paraformaldeyde pH shift (Barcallo, 1995) and mounted for analysis by confocal laser scanning microscopy (CLSM).
After two washes with PBS w/o Ca^2+ and Mg^2+, the cells were incubated with 2ml of FITC-antisense oligonucleotide (ELNG05) at a concentration of 10µM in PBS w/o Ca^2+ and Mg^2+ and incubated at 37°C for 30min.
Caco-2 cells were incubated with 1ml of antisense +/- enhancers in PBS w/o Ca^2+ and Mg^2+ and incubated for 30min at 37°C. Two different fluorescently labelled antisense oligonucleotides were used in these experiments at a concentration of 10µM: ELNG05 (antisense to BCR-Ab1) and S-PTH-05 (antisense to HPT1 receptor). […] The uptake of antisense was also analysed in the absence of enhancers for 30min and 60min as control.

[2] = system: Caco-2 cells; conditions: cationic lipid (lipofectamine): plasmid DNA complex alone set at 100%; β-galactosidase 24 hours post transfection; enhancer concentration not given in the sentence (C8 30 or 5mM, C10 5 or 1mM tested)

Compound: CCCCCCCCCC(=O)[O-].[Na+] [C10, sodium caprate]
- cell permeation / intracellular staining with TexasRed-DHPE and FITC-oligonucleotide (CLSM) ([1]; Experiment a, C10 at 10-13mM pre-incubated 40min, then 10µM FITC-ELNG05 30min): permeated completely the cells
- uptake of antisense (CLSM) ([1]; Experiment b, C10 2.6 mM together with 10µM antisense, 30min): did not increase the uptake of antisense
- effect on Caco-2 cell adherence ([1]; Experiment b, C10 13mM, 30min): loss of adherence of Caco-2 cells
- staining of cells (CLSM) ([1]; Experiment c, C10 8mM with 10µM antisense, 30min): only punctate staining, similar to the control
- staining of cells (CLSM) ([1]; Experiment c, C10 10mM with 10µM antisense, 30min): completely stained
- effect on cells ([1]; Experiment c, C10 between 13mM and 8mM, 30min): destruction of cells
- efficiency of transfection [2]: 245%

— EP1173217B1, “ENHANCED DELIVERY OF NUCLEIC ACID-BASED DRUGS” (Merrion Research I Limited, priority 1999, dated 2000)
